Source: ChEMBL document CHEMBL1201862, “PubChem BioAssay data set” (2004)
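Results reflect a 48-hour exposure of cells in 96-well plates to compound at five concentrations. Abbreviation: GI50, concentration required for 50% inhibition of growth.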 Calls of active or inactive are those of the source. Cut-off read from the data, not from the text of the source: active = GI50 up to about 1.1 µM and inactive = higher. Square brackets hold non-standard residues; d marks the D form. Peptide text beside a SMILES is read from it. 2Nal = N[CH](Cc1ccc2ccccc2c1)C(=O)O

Columns and labels:
Experiment in all cases: inhibition of tumour cell growth, NCI panel, 48 h
A498 = tested on: A498
A549 = tested on: A549
CAKI-1 = tested on: CAKI-1
CCRF-CEM = tested on: CCRF-CEM
HCT-116 = tested on: HCT-116
HCT-15 = tested on: HCT-15
IGROV-1 = tested on: IGROV-1
KM12 = tested on: KM12
M14 = tested on: M14
MCF7 = tested on: MCF7
MDA-N = tested on: MDA-N
NCI-H226 = tested on: NCI-H226
NCI-H23 = tested on: NCI-H23
NCI-H460 = tested on: NCI-H460
OVCAR-4 = tested on: OVCAR-4
SF-295 = tested on: SF-295
SK-OV-3 = tested on: SK-OV-3
SNB-75 = tested on: SNB-75
TK-10 = tested on: TK-10
XF498 = tested on: XF498

Row | SMILES | GI50 (A498) | GI50 (A549) | GI50 (CAKI-1) | GI50 (CCRF-CEM) | GI50 (HCT-116) | GI50 (HCT-15) [µM] | GI50 (IGROV-1) | GI50 (KM12) | GI50 (M14) | GI50 (MCF7) | GI50 (MDA-N) | GI50 (NCI-H226) | GI50 (NCI-H23) | GI50 (NCI-H460) | GI50 (OVCAR-4) | GI50 (SF-295) | GI50 (SK-OV-3) | GI50 (SNB-75) | GI50 (TK-10) | GI50 (XF498)
1 | O=C[C@@H](CO)O[C@H](C=O)n1cnc2c(=O)nc[nH]c21 | 673 µM (inactive) | 849 µM (inactive) | 319 µM (inactive) | 77.3 µM (inactive) | 177 µM (inactive) | 73.8 | 188 µM (inactive) | 335 µM (inactive) | 505 µM (inactive) | 91.2 µM (inactive) | 108 µM (inactive) | 583 µM (inactive) | 243 µM (inactive) | 603 µM (inactive) | 399 µM (inactive) | 619 µM (inactive) | 501 µM (inactive) | 667 µM (inactive) | 596 µM (inactive) | 459 µM (inactive)
2 | C/C(=C/C(=O)Nc1ccccc1)Nc1onc(C)c1C | > 100 µM (inactive) | > 100 µM (inactive) | – | > 100 µM (inactive) | > 100 µM (inactive) | > 100 | > 100 µM (inactive) | > 100 µM (inactive) | – | > 100 µM (inactive) | – | > 100 µM (inactive) | > 100 µM (inactive) | > 100 µM (inactive) | > 100 µM (inactive) | > 100 µM (inactive) | > 100 µM (inactive) | 38.4 µM (inactive) | – | > 100 µM (inactive)
3 | CSc1nc2c(ncn2C2OC(CO)C(O)C(O)C2O)c(=O)[nH]1 (configuration not stated) | > 100 µM (inactive) | > 100 µM (inactive) | – | > 100 µM (inactive) | > 100 µM (inactive) | > 100 | > 100 µM (inactive) | > 100 µM (inactive) | – | > 100 µM (inactive) | – | > 100 µM (inactive) | > 100 µM (inactive) | > 100 µM (inactive) | > 100 µM (inactive) | 82.2 µM (inactive) | > 100 µM (inactive) | > 100 µM (inactive) | – | > 100 µM (inactive)
4 | COc1cc(C(=O)C/C(CCC(=O)Nc2ccc(Cl)cc2Cl)=N/NC(=O)C(N)=O)ccc1O | > 100 µM (inactive) | > 100 µM (inactive) | > 100 µM (inactive) | > 100 µM (inactive) | > 100 µM (inactive) | > 100 | > 100 µM (inactive) | 85.7 µM (inactive) | > 100 µM (inactive) | – | – | > 100 µM (inactive) | > 100 µM (inactive) | > 100 µM (inactive) | > 100 µM (inactive) | > 100 µM (inactive) | > 100 µM (inactive) | 7.91 µM (inactive) | > 100 µM (inactive) | > 100 µM (inactive)
5 | CC(C)C(NC(=O)C(CCCCN)NC(=O)C(Cc1c[nH]c2ccccc12)NC(=O)C(Cc1ccc(O)cc1)NC(=O)C(CS)NC(=O)C(N)Cc1ccc2ccccc2c1)C(=O)NC(CS)C(=O)NC(C(N)=O)C(C)O (configuration not stated) (H-[2Nal]CYWKVCT-NH2; configuration not given here) | > 12.5 µM (inactive) | > 12.5 µM (inactive) | > 12.5 µM (inactive) | > 12.5 µM (inactive) | > 12.5 µM (inactive) | > 12.5 | > 12.5 µM (inactive) | > 12.5 µM (inactive) | > 12.5 µM (inactive) | > 12.5 µM (inactive) | > 12.5 µM (inactive) | > 12.5 µM (inactive) | > 12.5 µM (inactive) | > 12.5 µM (inactive) | > 12.5 µM (inactive) | > 12.5 µM (inactive) | > 12.5 µM (inactive) | > 100 µM (inactive) | – | > 100 µM (inactive)
6 | Cc1nc2ccc(NCCN(C)C)c3c(=O)c4cc(O)ccc4n1c23 | 1.42 µM (inactive) | 0.0933 µM (active) | 0.25 µM (active) | 0.0962 µM (active) | 0.0873 µM (active) | 0.394 | 0.839 µM (active) | 0.783 µM (active) | 2.67 µM (inactive) | 0.743 µM (active) | 1.43 µM (inactive) | 0.109 µM (active) | 0.318 µM (active) | 0.0291 µM (active) | 0.63 µM (active) | 1.04 µM (active) | 0.845 µM (active) | 0.418 µM (active) | 2.75 µM (inactive) | 1.56 µM (inactive)
7 | NCCNc1ccc(NCCN)c2c1C(=O)c1c(O)ccc(O)c1C2=O | 0.0818 µM (active) | 0.00392 µM (active) | 0.00711 µM (active) | 0.00791 µM (active) | 0.051 µM (active) | 0.161 | 0.0873 µM (active) | 0.118 µM (active) | 0.0149 µM (active) | 0.00731 µM (active) | 1.13 µM (inactive) | 0.0018 µM (active) | 0.00728 µM (active) | < 0.001 µM (active) | 0.207 µM (active) | 0.00445 µM (active) | 0.0266 µM (active) | 0.0162 µM (active) | 0.428 µM (active) | < 0.001 µM (active)
8 | COc1cccc(N[C@@H]2c3cc4c(cc3C(c3cc(OC)c(O)c(OC)c3)[C@H]3C(=O)OCC32)OCO4)c1 (some centres not stated) | 0.293 µM (active) | 0.0213 µM (active) | 0.197 µM (active) | 0.0546 µM (active) | 0.693 µM (active) | 0.552 | 2.07 µM (inactive) | 1.65 µM (inactive) | – | 0.207 µM (active) | – | 0.249 µM (active) | 0.587 µM (active) | < 0.01 µM (active) | 7.55 µM (inactive) | 0.186 µM (active) | 1.32 µM (inactive) | 0.52 µM (active) | – | 1.12 µM (inactive)
9 | COc1ccc2c(c1)OCCc1cn[nH]c1-2 | 28.6 µM (inactive) | 53.8 µM (inactive) | < 0.01 µM (active) | 37.4 µM (inactive) | 42.4 µM (inactive) | 35.2 | 23.4 µM (inactive) | 38.9 µM (inactive) | – | 26.7 µM (inactive) | – | – | 38.3 µM (inactive) | 31.6 µM (inactive) | 48.6 µM (inactive) | 54.2 µM (inactive) | 29.7 µM (inactive) | 28.4 µM (inactive) | – | 29 µM (inactive)
